# “And” between values parts separate entries of the source, which are not always exact repeats. Equal entries are not always repeated. Where two headings read alike, the source gives them in different places.
# Key:
# [1] = tested on: colon cancer cells (SW480); assay: antiproliferative effect / cell viability; format: cell-based; details: control = no drug
# Procedure: The antiproliferative effect of the following compounds A1F, B1F, C1F and D1F were tested on colon cancer cells (SW480). [drawing 94] [drawing 95]
# LoVo cells = assay: MTT colorimetric assay (antiproliferative efficacy); format: cell-based
# SW620 cells = assay: label-free temporal and quantitative pharmacoproteomics; format: cell-based
# Procedure: The following experiment was performed to uncover new biomarkers of therapeutic response to the anticancer efficacy of the natural product based theranostic systems of the present invention.
# In this experiment, SW620 cells were seeded in T75 flasks in DMEM, 10% FBS and 1% Penicillin/Streptomycin (all from Gibco). The cells were allowed to attach overnight. The following day the medium was removed and fresh medium containing 0.04 mM of either γT (γ-tocotrienol) or DCE-γT (diluted in absolute ethanol; final concentration of ethanol in the medium was 0.1% v/v). For control untreated cells, equal amount of fresh medium (containing ethanol at 0.1% v/v final concentration) was added.
# SW620 cells were harvested after 24, 36 and 48 hrs of incubation with γT or DCE-γT. Briefly, the medium was removed and the cells were rinsed three times with PBS (without Ca, Mg) (Gibco). Fresh PBS was added and the cells were scraped off the flasks and collected in tubes. Collected cells were centrifuged at 1000rpm (165g) for 3min and the supernatant was removed. The cell pellet was re-suspended in PBS and the centrifugation step was repeated. The supernatant was removed and the cells in minimal residual PBS were snap-freezed in liquid nitrogen. Once frozen the cells were stored in -80°C until the proteomics analysis.
# In terms of data analysis, a threshold of relative protein abundance equal or greater than 1.5-fold increase or decrease was set.
# [2] = target: T1, EGFR membrane tyrosine kinase receptor (Homo sapiens, UniProt P00533); assay: FRET assay in cells transfected with EGFR-Luc plasmid; format: cell-based; details: EGFR negative colon cancer cells transiently transfected with EGFR-Luc plasmid
# T1 construct: expressed in transfected cells
# Procedure: The fluorescent esters of the natural products disclosed herein can also be used as molecular probes for deciphering the interaction between the natural product and potential biomarkers in cancer cells. EGFR negative colon cancer cells were transiently transfected with a rationally designed EGFR-Luc plasmid and incubated with the DCE-γ-Tocotrienol ester. Bioluminescence of the Luciferase (donor) was assessed against the fluorescence signal of either the DCE-γ-Tocotrienol ester or the hydrolysis product (acceptor).
# EGFR-Luc and Grb2-GFP = EGFR-Luc and Grb2-GFP (Homo sapiens, UniProt P00533); assay: BRET assay of EGFR-Luc and Grb2-GFP interaction; format: cell-based; details: interaction between EGFR-Luc and Grb2-GFP
# [3] = in vivo biodistribution, quantitative fluorescence imaging
# [4] = SW620 cells, 0.04 mM, versus control untreated cells
compound,measurement,setting,value
C=CC(=O)Nc1cc2c(Nc3ccc(Br)cc3)ncnc2cc1NC(=O)CCl [A1F],viability of the cells with respect to the control,[1],reduce the viability of the cells
C=CC(=O)Nc1cc2c(Nc3ccc(C(C)C)cc3)ncnc2cc1NC(=O)CCl [B1F],viability of the cells with respect to the control,[1],reduce the viability of the cells
C=CC(=O)Nc1cc2c(NCc3cccc4ccccc34)ncnc2cc1NC(=O)CCl [C1F],viability of the cells with respect to the control,[1],reduce the viability of the cells
C=CC(=O)Nc1cc2c(Nc3ccc(C(C)(C)C)cc3)ncnc2cc1NC(=O)CCl [D1F],viability of the cells with respect to the control,[1],reduce the viability of the cells
"CC1(C)C(/C=C/C=C/C=C/C=C2\N(CCCCS(=O)(=O)O)c3ccc4ccccc4c3C2(C)C)=[N+](CCCCS(=O)(=O)[O-])c2ccc3ccccc3c21 [free cyanine dye, indocyanine green]",antiproliferative efficacy,LoVo cells,did not exhibit any antiproliferative effects
"CC(C)=CCC/C(C)=C/CC/C(C)=C/CC[C@]1(C)CCc2cc(O)c(C)c(C)c2O1 [γT, γ-tocotrienol, reference compound]",decrease of protein level of histone H2B types,SW620 cells; [4],1.8 fold
same,decrease of protein level of histone H3 types,SW620 cells; [4],at least 3.7 fold
same,decrease of protein level of hnRNPs,SW620 cells; [4],at least 2 fold
same,decrease of protein level of snRNPs / certain snRNP components,SW620 cells; [4],1.8 fold
same,increase of histone H2A.Z,SW620 cells; [4],24 fold
same,increase of the level of RNA helicases,SW620 cells; [4],≥ 1.9 fold
same,increase of the level of certain snRNP components,SW620 cells; [4],≥ 3 fold
same,increase of the level of transcription regulators/co-factors,SW620 cells; [4],≥ 2 fold
dicarboxylic ester of γ-Tocotrienol [DCE-γT],BRET signal,[2],amplified FRET signal
same,activation within the EGFR axis (BRET signals),EGFR-Luc and Grb2-GFP,neither the ester nor the hydrolysis products elicit any unwanted activation
same,decrease of DNA repair factors,SW620 cells,2 fold
same,decrease of protein level of histone H3 types,SW620 cells,at least 6 fold
same,decrease of protein level of snRNPs / certain snRNP components,SW620 cells,2 fold
same,increase of histone H2A.Z,SW620 cells,23 fold
same,increase of histone H3 forms,SW620 cells,≥ 1.8 fold
same,number of proteins whose expression was elicited,SW620 cells,37 proteins and 30 proteins and 29 proteins
same,protein modulation,SW620 cells,statistically significant modulation of key proteins
same,time of peak of fluorescent signal,"[3]; in vivo biodistribution, uptake as a function of time",30 min
same,brain uptake / blood brain barrier passage,"[3]; mouse brain parenchyma cells, data not shown",able to pass the blood brain barrier

# Source: patent publication EP3108900B1, “PROTOTYPE SYSTEMS OF THERANOSTIC BIOMARKERS FOR IN VIVO MOLECULAR MANAGEMENT OF CANCER” (EPOS-Iasis Research and Development, Ltd, priority 2015, dated 2016)
